Measured values taken from ChEMBL document CHEMBL4823252 (J Med Chem, 2021).
Values belong to the compound of their own block, whether it stands above or below them. Activity calls are given as the source filed them. No cut-off for these calls is given here.

Key:
[1] = system: Receptor-type tyrosine-protein kinase FLT3 (Homo sapiens), P36888 [UNDEFINED MUTATION]; assay: Binding affinity to FLT3 ITD mutant (unknown origin) at 1000 nM relative to control
[2] = system: HL-60; assay: Antiproliferative activity against human HL-60 cells measured after 72 hrs by CCK8 assay; type: functional, cell-based; details: HL-60, 72 h
[3] = system: MOLM-13; assay: Antiproliferative activity against human quizartinib-resistant MOLM-13 cells at 1 nM incubated for 72 hrs by CCK8 assay relative to control; type: functional
[4] = Toxicity in mouse xenografted with human MOLM-13 cells assessed as effect on lung at 10 to 40 mg/kg, po administered for 20 days by hematoxylin and eosin staining assay; type: organism-based; details: in vivo, 480 h, dose 10-40 mg/kg, time 20 day
[5] = system: MOLM-13; assay: Antiproliferative activity against human quizartinib-resistant MOLM-13 cells at 111 nM incubated for 72 hrs by CCK8 assay relative to control; type: functional
[6] = system: MOLM-13; assay: Induction of apoptosis in human MOLM-13 cells assessed as early apoptotic cells at 10 nM incubated for 24 hrs by flow cytometry (reference value: 2.18%); type: functional
[7] = system: MOLM-13; assay: Induction of apoptosis in human MOLM-13 cells assessed as necrotic apoptotic cells at 1 nM incubated for 24 hrs by flow cytometry (reference value: 0.45%); type: functional
[8] = system: MV4-11; assay: Induction of cell cycle arrest in human MV4-11 cells assessed as accumulation at S phase at 100 nM incubated for 24 hrs by flow cytometry (reference value: 16.31%); type: functional
[9] = system: MOLM-13; assay: Antiproliferative activity against human MOLM-13 cells incubated for 72 hrs by Cell Counting Kit-8 assay; type: functional, cell-based; details: MOLM-13, 72 h
[10] = system: MV4-11; assay: Induction of apoptosis in human MV4-11 cells assessed as viable cells at 100 nM incubated for 24 hrs by flow cytometry (reference value: 98.86%); type: functional; details: read-out: Activity
[11] = system: MOLM-13; assay: Induction of apoptosis in human MOLM-13 cells assessed as viable cells at 100 nM incubated for 24 hrs by flow cytometry (reference value: 92.83%); type: functional; details: read-out: Activity
[12] = species: Homo sapiens; assay: Binding affinity to FLT3 ITD D835V mutant (unknown origin) at 1000 nM relative to control
[13] = system: MV4-11; assay: Induction of apoptosis in human MV4-11 cells assessed as early apoptotic cells at 100 nM incubated for 24 hrs by flow cytometry (reference value: 0.31%); type: functional
[14] = system: HT-29; assay: Antiproliferative activity against human HT-29 cells measured after 72 hrs by CCK8 assay; type: functional, cell-based; details: HT-29, 72 h
[15] = Toxicity in mouse xenografted with human MV4-11 cells assessed as effect on spleen at 2.5 to 10 mg/kg, po administered for 16 days by hematoxylin and eosin staining assay; type: organism-based; details: in vivo, 384 h, dose 2.5-10 mg/kg, time 16 day
[16] = system: MV4-11; assay: Induction of apoptosis in human MV4-11 cells incubated for 24 hrs by flow cytometry; type: functional, cell-based
[17] = AUC (0 to infinity) in Sprague-Dawley rat at 10 mg/kg, po; type: ADME, organism-based; design: route oral, time infinity, dose 10 mg/kg; details: in vivo
[18] = molecular target: Vascular endothelial growth factor receptor 1 (Homo sapiens, UniProt P17948); assay: Inhibition of VEGFR1 (unknown origin) incubated for 30 mins in presence of ATP by mobility shift assay
[19] = system: MOLM-13; assay: Antiproliferative activity against human sunitinib-resistant MOLM-13 cells at 1000 nM incubated for 72 hrs by CCK8 assay relative to control; type: functional
[20] = system: THP-1; assay: Antiproliferative activity against human THP-1 cells measured after 72 hrs by CCK8 assay; type: functional, cell-based; details: THP-1, 72 h
[21] = molecular target: Receptor-type tyrosine-protein kinase FLT3 (Homo sapiens) (UniProt P36888); assay: Inhibition of FLT3 in human MV4-11 cells assessed as reduction in STAT5 phosphorylation at 10 uM incubated for 2 hrs by Western blot analysis; type: cell-based
[22] = Half life in Sprague-Dawley rat at 10 mg/kg, po; type: ADME, organism-based; details: in vivo
[23] = system: MOLM-13; assay: Induction of cell cycle arrest in human MOLM-13 cells assessed as accumulation at S phase at 100 nM incubated for 24 hrs by flow cytometry (reference value: 16.28%); type: functional
[24] = Toxicity in mouse xenografted with human MV4-11 cells assessed as effect on heart at 2.5 to 10 mg/kg, po administered for 16 days by hematoxylin and eosin staining based assay; type: organism-based; details: in vivo, 384 h, dose 2.5-10 mg/kg, time 16 day
[25] = system: MOLM-13; assay: Induction of apoptosis in human MOLM-13 cells incubated for 24 hrs by flow cytometry; type: functional, cell-based
[26] = system: MOLM-13; assay: Antiproliferative activity against human quizartinib-resistant MOLM-13 cells at 12 nM incubated for 72 hrs by CCK8 assay relative to control; type: functional
[27] = system: Receptor-type tyrosine-protein kinase FLT3 (Homo sapiens), P36888 [K663Q]; assay: Binding affinity to FLT3 K663Q mutant (unknown origin) at 1000 nM relative to control
[28] = system: Receptor-type tyrosine-protein kinase FLT3 (Homo sapiens), P36888 [D835H]; assay: Binding affinity to FLT3 D835H mutant (unknown origin) at 1000 nM relative to control
[29] = Oral bioavailability in Sprague-Dawley rat at 10 mg/kg; type: ADME, organism-based; details: in vivo
[30] = system: MOLM-13; assay: Antiproliferative activity against human sunitinib-resistant MOLM-13 cells at 12 nM incubated for 72 hrs by CCK8 assay relative to control; type: functional
[31] = molecular target: Receptor-type tyrosine-protein kinase FLT3 (Homo sapiens) (UniProt P36888); assay: Binding affinity to FLT3 (unknown origin) at 1000 nM relative to control
[32] = molecular target: Receptor-type tyrosine-protein kinase FLT3 (Homo sapiens, UniProt P36888, D835Y); assay: Inhibition of FLT3 D835Y mutant (unknown origin) incubated for 30 mins in presence of ATP by mobility shift assay
[33] = system: HeLa; assay: Antiproliferative activity against human HeLa cells measured after 72 hrs by CCK8 assay; type: functional, cell-based
[34] = system: MOLM-13; assay: Antiproliferative activity against human quizartinib-resistant MOLM-13 cells at 333 nM incubated for 72 hrs by CCK8 assay relative to control; type: functional
[35] = system: MOLM-13; assay: Antiproliferative activity against human quizartinib-resistant MOLM-13 cells at 4 nM incubated for 72 hrs by CCK8 assay relative to control; type: functional
[36] = system: HepG2; assay: Antiproliferative activity against human HepG2 cells measured after 72 hrs by CCK8 assay; type: functional, cell-based; details: HepG2, 72 h
[37] = system: MOLM-13; assay: Induction of cell cycle arrest in human MOLM-13 cells assessed as accumulation at sub-G1 phase at 1 nM incubated for 24 hrs by flow cytometry (reference value: 4.24%); type: functional
[38] = system: KG-1; assay: Antiproliferative activity against human KG1 cells measured after 72 hrs by CCK8 assay; type: functional, cell-based; details: KG-1, 72 h
[39] = MRT (0 to last) in Sprague-Dawley rat at 1 mg/kg, iv; type: ADME, organism-based; details: in vivo
[40] = molecular target: Receptor-type tyrosine-protein kinase FLT3 (Homo sapiens) (UniProt P36888); assay: Inhibition of FLT3 in human MV4-11 cells assessed as reduction in autophosphorylation at tyr589/591 residue incubated for 2 hrs by Western blot analysis; type: cell-based
[41] = Toxicity in mouse xenografted with human MOLM-13 cells assessed as induction of cytoplasmic condensation at 40 mg/kg, po administered for 20 days by hematoxylin and eosin staining assay; type: organism-based; details: in vivo, 480 h, time 20 day

Chain of Vascular endothelial growth factor receptor 1 (P17948 whole entry): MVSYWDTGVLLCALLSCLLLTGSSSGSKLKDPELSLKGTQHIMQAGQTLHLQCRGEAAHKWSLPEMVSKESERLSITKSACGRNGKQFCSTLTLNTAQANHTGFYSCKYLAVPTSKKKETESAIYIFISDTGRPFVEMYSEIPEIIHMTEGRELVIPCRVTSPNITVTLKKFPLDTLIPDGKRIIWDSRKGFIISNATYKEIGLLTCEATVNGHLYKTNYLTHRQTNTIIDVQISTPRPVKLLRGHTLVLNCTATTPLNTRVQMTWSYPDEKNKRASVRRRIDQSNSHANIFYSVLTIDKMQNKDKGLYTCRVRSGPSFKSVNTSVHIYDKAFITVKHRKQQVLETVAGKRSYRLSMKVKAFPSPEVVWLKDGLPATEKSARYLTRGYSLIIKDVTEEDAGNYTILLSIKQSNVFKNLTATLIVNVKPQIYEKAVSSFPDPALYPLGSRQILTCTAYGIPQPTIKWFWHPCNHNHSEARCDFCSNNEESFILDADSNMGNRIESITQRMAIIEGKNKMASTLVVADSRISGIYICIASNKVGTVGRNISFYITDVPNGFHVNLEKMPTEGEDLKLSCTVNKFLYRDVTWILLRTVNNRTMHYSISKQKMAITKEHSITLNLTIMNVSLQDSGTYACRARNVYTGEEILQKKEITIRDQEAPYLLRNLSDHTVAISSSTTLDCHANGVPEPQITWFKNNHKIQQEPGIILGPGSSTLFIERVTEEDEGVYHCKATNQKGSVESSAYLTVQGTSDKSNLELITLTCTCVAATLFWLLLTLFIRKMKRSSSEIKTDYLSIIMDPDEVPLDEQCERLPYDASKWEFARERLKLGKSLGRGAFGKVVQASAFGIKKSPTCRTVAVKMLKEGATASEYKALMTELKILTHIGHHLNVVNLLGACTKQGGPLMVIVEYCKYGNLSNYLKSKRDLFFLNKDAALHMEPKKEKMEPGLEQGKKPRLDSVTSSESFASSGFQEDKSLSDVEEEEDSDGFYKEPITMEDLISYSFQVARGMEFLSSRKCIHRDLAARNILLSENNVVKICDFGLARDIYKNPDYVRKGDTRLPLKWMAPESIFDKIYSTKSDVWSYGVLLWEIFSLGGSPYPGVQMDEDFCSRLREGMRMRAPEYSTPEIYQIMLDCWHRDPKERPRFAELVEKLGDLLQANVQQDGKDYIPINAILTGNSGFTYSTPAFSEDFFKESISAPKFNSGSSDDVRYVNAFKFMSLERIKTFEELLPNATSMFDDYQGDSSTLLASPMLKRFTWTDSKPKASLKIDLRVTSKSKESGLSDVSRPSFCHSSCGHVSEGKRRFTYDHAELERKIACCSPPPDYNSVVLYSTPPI

Activity [1]: Active
IC50 [2]: 4720 nM
IC50 [9]: 35.5 nM
Activity [12]: Active
IC50 [14]: 1540 nM
AUC(0-inf) [17]: 22700 ng·h/mL
IC50 [18]: 120 nM
IC50 [20]: 3150 nM
Activity [21]: Active
half-life [22]: 6.1 h
Activity [27]: Active
Activity [28]: Active
bioavailability [29]: 73.6%
Activity [31]: Active
IC50 [32]: 1.9 nM
IC50 [33]: 1960 nM
IC50 [36]: 1690 nM
MRT last [39]: 4 h
Activity [40]: Dose-Dependent Effect
SMILES: Cc1c(NC(=O)CCN2CCCC2)c[nH]c1/C=C1\C(=O)Nc2ccc(F)cc21
Activity [3]: 1.5%
Activity [4]: Non-Toxic
Activity [5]: 2.9%
Activity [6]: 22.66%
Activity [7]: 0.22%
Activity [8]: 4.06%
viability at 0.1 µM [10]: 71.7%
viability at 0.1 µM [11]: 43.8%
Activity [13]: 17.98%
Activity [15]: Non-Toxic
Activity [16]: Dose-Dependent Effect
Activity [19]: 67.8%
Activity [23]: 4.16%
Activity [24]: Non-Toxic
Activity [25]: Dose-Dependent Effect
Activity [26]: 2.6%
Activity [30]: -2.6%
Activity [34]: 13.4%
Activity [35]: 3.3%
Activity [37]: 6.76%
IC50 [38]: 1100 nM

IC50 [9]: 69.6 nM
SMILES: CCN(CC)CCNC(=O)c1c(C)[nH]c(/C=C2\C(=O)Nc3ccc(F)cc32)c1C [SUNITINIB]
Activity [3]: 0.5%
Activity [5]: 0.5%
Activity [6]: 19.36%
Activity [7]: 0.24%
Activity [8]: 3.91%
viability at 0.1 µM [10]: 80.1%
viability at 0.1 µM [11]: 44.3%
Activity [13]: 9.64%
Activity [19]: 25.9%
Activity [26]: -1.1%
Activity [35]: -0.6%
Activity [41]: Toxic
Activity [37]: 6.13%
